System: Pten^pc−/−; Pml^pc−/− prostate tumors
Test: In vivo CXCR2 antagonist treatment of Pten^pc−/−; Pml^pc−/− mice (MRI, flow cytometry)
Parameters: species or system mouse
Details: for tumor growth (tumor volume by MRI): Pml^pc−/− mice, 5 mg/kg intraperitoneal daily for 14 days, vs vehicle, 5 mg/kg
Protocol: Mice were allocated at random to experimental groups and studies were performed in an unblended manner. For treatment with the CXCR2 antagonist, SB225002 (Cayman Chemical #13336) was dissolved in DMSO (10 mg/ml) and diluted in vehicle (0.9% NaCl, 0.3% Tween 80) for in vivo administration. Mice (4 months of age) were treated daily for 10 days by intraperitoneal injection (5 mg/kg) and prostate tumor tissue (anterior lobes) was subjected to Flow Cytometry and histological analysis. For MRI analysis, mice (4 months of age) were treated daily for 21 days (Pten^pc-/-; Zbtb7a^pc-/-), for 14 days (Pten^pc-/-; Trp53^pc-/-) or for 14 days (Pten^pc-/-; Pml^pc-/-) by intraperitoneal injection (5 mg/kg). For depletion of Gr-1+/CD11b+ cells, Ly6G-depletion antibody (1A8, BioXcell) and control Rat IgG2a antibody (BioXcell) were diluted in phosphate-buffered saline (PBS) for in vivo administration. Mice (4 months of age) were treated every other day for 10 days by intraperitoneal injection (200-300 μg/mouse). InVivoMAb anti-mouse Ly6G/Ly6C (Gr-1) antibody, clone RB6-8C5 (BE0075, BioXcell), and control Rat IgG2b antibody (BE0090, BioXcell) were diluted in PBS and Pten^pc-/-; Trp53^pc-/- mice were treated every other day for 14 days by intraperitoneal injection (200 μg/mouse). For neutralization of CXCL5, anti-Mouse CXCL5 antibody (Leinco Technologies) and control Rat IgG2a antibody (BioXcell) were diluted in PBS and injected every other day for 21 days by intraperitoneal injection (20 μg/mouse). Tumor volume quantification was performed by using VivoQuant and Image J software. All mouse prostate MRI imaging analysis was performed at Small Animal Imaging Core at BIDMC and acquired on an […] Model M2 1T tabletop scanner. For Flow Cytometry, spleen and lymph node single cell suspensions were prepared by mashing the tissue in 2% FBS/PBS. […] All staining mixtures were analyzed on a BD LSR II flow cytometer (Becton Dickinson). Resulting profiles were further processed and analyzed using the FlowJo 8.7 software.

O=C(Nc1ccc([N+](=O)[O-])cc1O)Nc1ccccc1Br [SB225002]
tumor growth (tumor volume by MRI): did not show any significant response
tumor growth (tumor volume by MRI) (listed as CXCR2i): did not respond
intra-tumoral Gr-1+/CD11b+ cells (flow cytometry) (Pml^pc−/− prostate tumors after treatment): decrease of Gr-1+/CD11b+ cells

— patent US20210277102A1, “COMPOSITIONS AND METHODS FOR TREATING A TUMOR SUPPRESSOR DEFICIENT CANCER” (BETH ISRAEL DEACONESS MEDICAL CENTER, INC., priority 2016, published 2021)
